According to patent US11479539B2, “Small molecule modulators of the BTB domain of Keap1” (MedImmune Limited, priority 2017, dated 2022):

Biological target: Keap1 (Homo sapiens (Human), UniProt Q14145)
Assay: HEK293 ARE luciferase assay
Format: cell-based
Conditions: HEK-293 ARE firefly luciferase transiently transfected cells; 18 h incubation; mean of 1 to 20 individual measurements
How it was run: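 Keap1 inhibition read as Nrf2-driven luciferase rise: compounds dosed in 10 points up to 100 μM (0.3% DMSO) on HEK-293 ARE luciferase cells, 10,000/well, 18 h at 37 °C, then SteadyGlo luminescence. Scaled between DMSO vehicle and 30 μM tBHQ; values average 1-20 runs.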

Keap1, sequence (Q14145 whole entry): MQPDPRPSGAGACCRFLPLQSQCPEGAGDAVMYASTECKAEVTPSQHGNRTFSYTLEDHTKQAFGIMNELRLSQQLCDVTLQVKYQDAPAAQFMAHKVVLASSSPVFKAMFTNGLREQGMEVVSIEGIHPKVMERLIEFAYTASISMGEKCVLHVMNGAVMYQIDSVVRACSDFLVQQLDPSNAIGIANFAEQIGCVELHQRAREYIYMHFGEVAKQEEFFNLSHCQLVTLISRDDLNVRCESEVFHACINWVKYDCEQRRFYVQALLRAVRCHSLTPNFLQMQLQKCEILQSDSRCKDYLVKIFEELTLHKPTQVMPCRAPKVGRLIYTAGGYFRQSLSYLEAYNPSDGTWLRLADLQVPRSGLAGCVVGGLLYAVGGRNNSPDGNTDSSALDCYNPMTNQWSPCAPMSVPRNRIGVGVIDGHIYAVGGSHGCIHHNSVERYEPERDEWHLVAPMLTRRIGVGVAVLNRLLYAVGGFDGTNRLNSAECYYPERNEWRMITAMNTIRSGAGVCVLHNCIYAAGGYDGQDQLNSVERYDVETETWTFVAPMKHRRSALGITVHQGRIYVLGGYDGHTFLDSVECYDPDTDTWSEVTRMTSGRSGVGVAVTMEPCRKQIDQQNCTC

Question: Which EC50 does the source give for COC1(c2ncc(F)cc2C)C=C(C#N)C(=O)C2(CCCC2)C1 (centres unmarked) [Compound 149, 9-(5-fluoro-3-methylpyridin-2-yl)-9-methoxy-6-oxospiro[4.5]dec-7-ene-7-carbonitrile] here?
Answer: The EC50 was 201 nM.

Question: How did the EC50 turn out when COC1(c2scnc2C)C=C(C#N)C(=O)C(C)(C)C1 (centres unmarked) [Compound 150, 3-methoxy-5,5-dimethyl-3-(4-methyl-1,3-thiazol-5-yl)-6-oxocyclohex-1-ene-1-carbonitrile] was run?
Answer: The EC50 was 147 nM.

Question: For COC1(c2ncc(F)cc2C(F)(F)F)C=C(C#N)C(=O)C(C)(C)C1 (centres unmarked) [Compound 151, 3-[5-fluoro-3-(trifluoromethyl)pyridin-2-yl]-3-methoxy-5,5-dimethyl-6-oxocyclohex-1-ene-1-carbonitrile], which EC50 is on record?
Answer: Its EC50 is 34 nM.

Question: Which EC50 does the source give for COC1(c2ncc(F)cc2C(F)F)C=C(C#N)C(=O)C(C)(C)C1 (centres unmarked) [Compound 152, 3-[3-(difluoromethyl)-5-fluoropyridin-2-yl]-3-methoxy-5,5-dimethyl-6-oxocyclohex-1-ene-1-carbonitrile] here?
Answer: The EC50 was 47 nM.

Question: COC1(c2ncc(F)cc2C)C=C(C#N)C(=O)C2(CCCC2)C1 (centres unmarked) [Compound 153, 9-(5-fluoro-3-methylpyridin-2-yl)-9-methoxy-6-oxospiro[4.5]dec-7-ene-7-carbonitrile] was tested. Which EC50 did it give?
Answer: Its EC50 is 7090 nM.

Question: How did the EC50 turn out when COC1(c2nc(C)c(Br)s2)C=C(C#N)C(=O)C(C)(C)C1 (centres unmarked) [Compound 154, 3-(5-bromo-4-methyl-1,3-thiazol-2-yl)-3-methoxy-5,5-dimethyl-6-oxocyclohex-1-ene-1-carbonitrile] was run?
Answer: The EC50 was 53 nM.

Question: For COC1(c2nc(C)c(-c3ccccn3)s2)C=C(C#N)C(=O)C(C)(C)C1 (centres unmarked) [Compound 155, 3-methoxy-5,5-dimethyl-3-[4-methyl-5-(pyridin-2-yl)-1,3-thiazol-2-yl]-6-oxocyclohex-1-ene-1-carbonitrile], which EC50 is on record?
Answer: Its EC50 is 161 nM.

Question: For COC1(c2ncc(F)cc2F)C=C(C#N)C(=O)C2(CC2)C1 (centres unmarked) [Compound 156, 7-(3,5-difluoropyridin-2-yl)-7-methoxy-4-oxospiro[2.5]oct-5-ene-5-carbonitrile], which EC50 is on record?
Answer: Its EC50 is 249 nM.

Question: COC1(c2ncc(Cl)cc2F)C=C(C#N)C(=O)C2(CC2)C1 (centres unmarked) [Compound 157, 7-(5-chloro-3-fluoropyridin-2-yl)-7-methoxy-4-oxospiro[2.5]oct-5-ene-5-carbonitrile] was tested. Which EC50 did it give?
Answer: Its EC50 is 448 nM.

Question: Which EC50 does the source give for COC1(c2ncc(Cl)cc2C(F)F)C=C(C#N)C(=O)C(C)(C)C1 (centres unmarked) [Compound 158, 3-[5-chloro-3-(difluoromethyl)pyridin-2-yl]-3-methoxy-5,5-dimethyl-6-oxocyclohex-1-ene-1-carbonitrile] here?
Answer: The EC50 was 21 nM.

Question: How did the EC50 turn out when COC1(c2ncc(F)cc2OC(F)F)C=C(C#N)C(=O)C2(CC2)C1 (centres unmarked) [Compound 160, 7-[3-(difluoromethoxy)-5-fluoropyridin-2-yl]-7-methoxy-4-oxospiro[2.5]oct-5-ene-5-carbonitrile] was run?
Answer: Its EC50 is 20 nM.

Question: Which EC50 does the source give for COC1(c2ncc(F)cc2-c2cnn(C)c2)C=C(C#N)C(=O)C(C)(C)C1 (centres unmarked) [Compound 161, 3-[5-fluoro-3-(1-methyl-1H-pyrazol-4-yl)pyridin-2-yl]-3-methoxy-5,5-dimethyl-6-oxocyclohex-1-ene-1-carbonitrile] here?
Answer: Its EC50 is 14 nM.

Question: For COC1(c2ncc(F)cc2-c2ccc(F)cc2)C=C(C#N)C(=O)C(C)(C)C1 (centres unmarked) [Compound 163, 3-[5-fluoro-3-(4-fluorophenyl)pyridin-2-yl]-3-methoxy-5,5-dimethyl-6-oxocyclohex-1-ene-1-carbonitrile], which EC50 is on record?
Answer: Its EC50 is 54 nM.

Question: With COC1(c2ncc(F)cc2-c2cnn(C)c2C)C=C(C#N)C(=O)C(C)(C)C1 (centres unmarked) [Compound 164, 3-[3-(1,5-dimethyl-1H-pyrazol-4-yl)-5-fluoropyridin-2-yl]-3-methoxy-5,5-dimethyl-6-oxocyclohex-1-ene-1-carbonitrile] as the molecule, how does the EC50 read?
Answer: Its EC50 is 28 nM.

Question: How did the EC50 turn out when COC1(c2ncc(F)cc2C#CC(C)C)C=C(C#N)C(=O)C(C)(C)C1 (centres unmarked) [Compound 165, 3-[5-fluoro-3-(3-methylbut-1-yn-1-yl)pyridin-2-yl]-3-methoxy-5,5-dimethyl-6-oxocyclohex-1-ene-1-carbonitrile] was run?
Answer: The EC50 was 151 nM.

Question: COC1(c2ncc(F)cc2-c2cnn(C3CC3)c2)C=C(C#N)C(=O)C(C)(C)C1 (centres unmarked) [Compound 166, 3-[3-(1-cyclopropyl-1H-pyrazol-4-yl)-5-fluoropyridin-2-yl]-3-methoxy-5,5-dimethyl-6-oxocyclohex-1-ene-1-carbonitrile] was tested. Which EC50 did it give?
Answer: Its EC50 is 14 nM.

Question: COC1(c2ncc(F)cc2-c2ccc(=O)n(C)c2)C=C(C#N)C(=O)C(C)(C)C1 (centres unmarked) [Compound 167, 3-(5-fluoro-1′-methyl-6′-oxo[1′,6′-dihydro[3,3′-bipyridine]]-2-yl)-3-methoxy-5,5-dimethyl-6-oxocyclohex-1-ene-1-carbonitrile] was tested. Which EC50 did it give?
Answer: The EC50 was 18 nM.

Question: For COC1(c2ncc(F)cc2-c2cnc(C)s2)C=C(C#N)C(=O)C(C)(C)C1 (centres unmarked) [Compound 168, 3-[5-fluoro-3-(2-methyl-1,3-thiazol-5-yl)pyridin-2-yl]-3-methoxy-5,5-dimethyl-6-oxocyclohex-1-ene-1-carbonitrile], which EC50 is on record?
Answer: Its EC50 is 12 nM.

Question: CCCc1cccnc1C1(OC)C=C(C#N)C(=O)C(C)(C)C1 (centres unmarked) [Compound 169, 3-methoxy-5,5-dimethyl-6-oxo-3-(3-propylpyridin-2-yl)cyclohex-1-ene-1-carbonitrile] was tested. Which EC50 did it give?
Answer: The EC50 was 173 nM.

Question: COC1(c2ncc(F)cc2-c2ccnc(C)c2)C=C(C#N)C(=O)C(C)(C)C1 (centres unmarked) [Compound 170, 3-(5-fluoro-2′-methyl[3,4′-bipyridin]-2-yl)-3-methoxy-5,5-dimethyl-6-oxocyclohex-1-ene-1-carbonitrile] was tested. Which EC50 did it give?
Answer: Its EC50 is 12 nM.

Question: COC1(c2ncc(F)cc2-c2cccn(C)c2=O)C=C(C#N)C(=O)C(C)(C)C1 (centres unmarked) [Compound 171, 3-(5-fluoro-1′-methyl-2′-oxo[1′,2′-dihydro[3,3′-bipyridine]]-2-yl)-3-methoxy-5,5-dimethyl-6-oxocyclohex-1-ene-1-carbonitrile] was tested. Which EC50 did it give?
Answer: The EC50 was 136 nM.

Question: With COC1(c2ncc(F)cc2-c2cn(C)nc2C)C=C(C#N)C(=O)C(C)(C)C1 (centres unmarked) [Compound 172, 3-[3-(1,3-dimethyl-1H-pyrazol-4-yl)-5-fluoropyridin-2-yl]-3-methoxy-5,5-dimethyl-6-oxocyclohex-1-ene-1-carbonitrile] as the molecule, how does the EC50 read?
Answer: The EC50 was 8 nM.

Question: COC1(c2ncc(F)cc2-c2cc(C)nc(C)c2)C=C(C#N)C(=O)C(C)(C)C1 (centres unmarked) [Compound 173, 3-(5-fluoro-2′,6′-dimethyl[3,4′-bipyridin]-2-yl)-3-methoxy-5,5-dimethyl-6-oxocyclohex-1-ene-1-carbonitrile] was tested. Which EC50 did it give?
Answer: The EC50 was 15 nM.

Question: COC1(c2ncc(F)cc2OC(F)F)C=C(C#N)C(=O)C(C)(C)C1 (centres unmarked) [Compound 174, 3-[3-(difluoromethoxy)-5-fluoropyridin-2-yl]-3-methoxy-5,5-dimethyl-6-oxocyclohex-1-ene-1-carbonitrile] was tested. Which EC50 did it give?
Answer: The EC50 was 41 nM.

Question: For COC1(c2ncc(F)cc2-c2ccnc(C)c2C)C=C(C#N)C(=O)C(C)(C)C1 (centres unmarked) [Compound 175, 3-(5-fluoro-2′,3′-dimethyl[3,4′-bipyridin]-2-yl)-3-methoxy-5,5-dimethyl-6-oxocyclohex-1-ene-1-carbonitrile], which EC50 is on record?
Answer: The EC50 was 174 nM.

Question: C/C=C/c1cc(F)cnc1C1(OC)C=C(C#N)C(=O)C(C)(C)C1 (centres unmarked) [Compound 176, 3-{5-fluoro-3-[(1E)-prop-1-en-1-yl]pyridin-2-yl}-3-methoxy-5,5-dimethyl-6-oxocyclohex-1-ene-1-carbonitrile] was tested. Which EC50 did it give?
Answer: Its EC50 is 19 nM.

Question: For COC1(c2ncc(F)cc2-c2cccnc2C)C=C(C#N)C(=O)C(C)(C)C1 (centres unmarked) [Compound 177, 3-(5-fluoro-2′-methyl[3,3′-bipyridin]-2-yl)-3-methoxy-5,5-dimethyl-6-oxocyclohex-1-ene-1-carbonitrile], which EC50 is on record?
Answer: The EC50 was 103 nM.

Question: With COC1(c2ncc(F)cc2-c2ccns2)C=C(C#N)C(=O)C(C)(C)C1 (centres unmarked) [Compound 178, 3-[5-fluoro-3-(1,2-thiazol-5-yl)pyridin-2-yl]-3-methoxy-5,5-dimethyl-6-oxocyclohex-1-ene-1-carbonitrile] as the molecule, how does the EC50 read?
Answer: Its EC50 is 52 nM.

Question: For COC1(c2ncc(F)cc2-c2cnn(-c3ccccc3)c2)C=C(C#N)C(=O)C(C)(C)C1 (centres unmarked) [Compound 179, 3-[5-fluoro-3-(1-phenyl-1H-pyrazol-4-yl)pyridin-2-yl]-3-methoxy-5,5-dimethyl-6-oxocyclohex-1-ene-1-carbonitrile], which EC50 is on record?
Answer: The EC50 was 7 nM.

Question: How did the EC50 turn out when COC1(c2ncc(F)cc2-c2cnn(C3CCCC3)c2)C=C(C#N)C(=O)C(C)(C)C1 (centres unmarked) [Compound 180, 3-[3-(1-cyclopentyl-1H-pyrazol-4-yl)-5-fluoropyridin-2-yl]-3-methoxy-5,5-dimethyl-6-oxocyclohex-1-ene-1-carbonitrile] was run?
Answer: Its EC50 is 115 nM.

Question: CCn1cc(-c2cc(F)cnc2C2(OC)C=C(C#N)C(=O)C(C)(C)C2)cn1 (centres unmarked) [Compound 181, 3-[3-(1-ethyl-1H-pyrazol-4-yl)-5-fluoropyridin-2-yl]-3-methoxy-5,5-dimethyl-6-oxocyclohex-1-ene-1-carbonitrile] was tested. Which EC50 did it give?
Answer: Its EC50 is 68 nM.

Question: Which EC50 does the source give for COC1(c2ncc(F)cc2-c2cncc(F)c2)C=C(C#N)C(=O)C(C)(C)C1 (centres unmarked) [Compound 182, 3-(5,5′-difluoro[3,3′-bipyridin]-2-yl)-3-methoxy-5,5-dimethyl-6-oxocyclohex-1-ene-1-carbonitrile] here?
Answer: Its EC50 is 105 nM.

Question: How did the EC50 turn out when COC1(c2ncc(F)cc2-c2cnc(C)nc2)C=C(C#N)C(=O)C(C)(C)C1 (centres unmarked) [Compound 183, 3-[5-fluoro-3-(2-methylpyrimidin-5-yl)pyridin-2-yl]-3-methoxy-5,5-dimethyl-6-oxocyclohex-1-ene-1-carbonitrile] was run?
Answer: Its EC50 is 121 nM.

Question: COC1(c2ncc(F)cc2-c2cncc(C#N)c2)C=C(C#N)C(=O)C(C)(C)C1 (centres unmarked) [Compound 184, 2′-(3-cyano-1-methoxy-5,5-dimethyl-4-oxocyclohex-2-en-1-yl)-5′-fluoro[3,3′-bypyridine]-5-carbonitrile] was tested. Which EC50 did it give?
Answer: Its EC50 is 121 nM.

Question: COC1(c2ncc(F)cc2-c2cncc(Cl)c2)C=C(C#N)C(=O)C(C)(C)C1 (centres unmarked) [Compound 185, 3-(5′-chloro-5-fluoro[3,3′-bypyridin]-2-yl)-3-methoxy-5,5-dimethyl-6-oxocyclohex-1-ene-1-carbonitrile] was tested. Which EC50 did it give?
Answer: Its EC50 is 8 nM.
